Test results taken from patent publication US20140004062A1, “COMPOSITION INCLUDING 3-BROMO-4,5-DIHYDROXYBENZALDEHYDE COMPOUND AS EFFECTIVE COMPONENT FOR PROTECTING AND TREATING SKIN CELL AGANIST ULTRAVIOLET” (Jeju National University Industry-Academic Cooperation …, priority 2012, published 2014).
One block for each molecule: values may come before it.

Tests used:
HaCaT cells [1] = experiment: MTT assay, viability of UVB-exposed HaCaT cells; type: cell-based; details: Homo sapiens, light or radiation study, UVB 1 h later, 24 h, untreated UVB cells 65%, read-out: viability of the cell exposed to UVB
Description: (§1) Human keratinocytes (HaCaT cells) were obtained from the Amore Pacific Company (Gyeonggi-do, Republic of Korea). Cells were maintained at 37° C. in an incubator with a humidified atmosphere of 5% CO2. Cells were cultured in Dulbecco's modified Eagle's medium containing 10% heat-inactivated fetal calf serum, streptomycin (100 μg/mL) and penicillin (100 unit/mL).
(§2) The effect of BDB on the viability of HaCaT cells was assessed as follows. Cells were seeded in a 96-well plate at a density of 1×10^5 cells/mL. Sixteen hours after plating, BDB was added at a concentration of at 10, 20, 30, 40, and 50 μM. To evaluate the ability of BDB to protect keratinocytes against UVB-exposure, BDB was added at a concentration of 10, and 30 μM, and cells were exposed to UVB radiation one hour later and incubated at 37° C. for 24 h. Fifty microliter of MTT stock solution (2 mg/mL) was added to each well to yield a total reaction volume of 200 μl. After incubating the cells for 4 h, the plate was centrifuged at 800×g for 5 min, and the supernatants were aspirated. The formazan crystals in each well were dissolved in dimethylsulfoxide (150 μl), and the absorbance at 540 nm was read on a scanning multi-well spectrophotometer.

[2] = UVB absorption analysis, ultraviolet/visible spectrophotometer; type: physicochemical
Description: To study the UVB absorption spectra of BDB, which was diluted in DMSO at a ratio 1:500 (v/v), it was scanned by UV at 200-500 nm using Biochrom Libra S22 ultraviolet/visible spectrophotometer.

HaCaT cells [3] = experiment: Cytoplasmic histone-associated DNA fragmentation kit; type: cell-based, human; details: UVB-irradiated cells treated with BDB
Description: Cellular DNA fragmentation was assessed by analyzing the extent of cytoplasmic histone-associated DNA fragmentation using a kit from Roche Diagnostics (Portland, Oreg., USA) according to the manufacturer's instructions. A cytoplasmic histone-associated DNA fragmentation was increased in UVB-irradiated cells as compared with control cells. The level of DNA fragmentation was decreased in UVB-irradiated cells that were treated with BDB (see FIG. 4c).

HaCaT keratinocytes [4] = experiment: Intracellular ROS induced by H2O2, DCF-DA method; type: cell-based, human; details: H2O2 1 mM
Description: (§3) The DCF-DA method was used to detect intracellular ROS levels in HaCaT keratinocytes generated by either H2O2 or UVB radiation. For the detection of ROS in H2O2-treated cells, cells were seeded at a density of 1.5×10^5 cells/well. Sixteen hours after plating, cells were treated with BDB at a concentration of 10, 20, 30 μM and 2 mM NAC. After 30 min, H2O2 (1 mM) was added to the plate. Cells were incubated for an additional 30 min at 37° C., and DCF-DA solution (25 μM) was then added. Ten minutes after the addition of DCF-DA, the fluorescence of 2′,7′-dichlorofluorescein (DCF) was detected and quantified using a PerkinElmer LS-5B spectrofluorometer (PerkinElmer, Waltham, Mass., USA). For the detection of ROS in UVB-exposed cells, cells were treated with BDB as above. After one hour, cells were exposed to UVB radiation at a dose of 30 mJ/cm^2. […] Cells were incubated for an additional 24 h at 37° C., DCF-DA solution (25 μM) was added and detected as above.

[5] = Detection of superoxide anion, xanthine/xanthine oxidase system, ESR spectrometry; type: physicochemical; details: BDB 30 μM; signal without BDB 2765
Description: The superoxide anion was produced via the xanthine/xanthine oxidase system and then reacted with a nitrone spin trap, DMPO. The DMPO/.OOH adducts were detected using a JES-FA electron spin resonance (ESR) spectrometer (JEOL, Tokyo, Japan). Briefly, ESR signaling was recorded 5 min after 20 μl of xanthine oxidase (0.25 U/mL) was mixed with 20 μl each of xanthine (5 mM), DMPO (1.5 M) and BDB (30 μM). The ESR spectrometer parameters were set at a magnetic field of 336 mT, power of 1.00 mW, frequency of 9.4380 GHz, modulation amplitude of 0.2 mT, gain of 500, scan time of 0.5 min, scan width of 10 mT, time constant of 0.03 sec, and temperature of 25° C.

HaCaT cells [6] = experiment: Lipid peroxidation, 8-isoprostane enzyme immunoassay; type: cell-based, human; details: UVB-exposed cells treated with BDB, 24 h; UVB alone 3.1 pg/mg
Description: (§4) A cell was exposed to UVB, and then after 24 hours, effects of BDB in inhibiting the cell membrane lipid peroxidation, a protein modification, and a cell DNA damage of UVB-irradiated cell was observed. Lipid peroxidation was assayed by the determination of 8-isoprostane levels in the culture medium. A commercial enzyme immunoassay (Cayman Chemical, Ann Arbor, Mich., USA) was employed according to the manufacturer's instructions. Lipid peroxidation was also estimated using a fluorescent probe, DPPP. Cells were incubated with 5 μM DPPP for 15 min in the dark and then exposed to UVB. DPPP fluorescence image was captured using a Zeiss Axiovert 200 inverted microscope at an excitation wavelength of 351 nm and an emission wavelength of 380 nm and quantified.

HaCaT keratinocytes [7] = experiment: Intracellular ROS induced by UVB, DCF-DA method; type: cell-based, human; details: UVB 30 mJ/cm^2, 24 h
Description: as §3

[8] = test system: hematopoietic necrosis virus; details: cited from earlier work
HaCaT cells [9] = experiment: Protein carbonyl formation ELISA; type: cell-based, human; details: UVB-irradiated cells treated with BDB
Description: The amount of carbonyl formation in protein was determined using an Oxiselect™ protein carbonyl ELISA kit purchased from Cell Biolabs (San Diego, Calif., USA) according to the manufacturer's instructions.

HaCaT cells [10] = experiment: Nuclear staining with Hoechst 33342, apoptotic bodies; type: cell-based, human; details: BDB 30 μM, UVB 1 h later, 24 h; UVB alone 16
Description: Cells were treated with BDB at a concentration of 30 μM and exposed to UVB radiation 1 h later. Cells were incubated for an additional 24 h at 37° C. Hoechst 33342 (1.5 μL of a 10 mg/mL stock), a DNA-specific fluorescent dye, was added to each well, and the cells were incubated for 10 min at 37° C. The stained cells were visualized under a fluorescence microscope equipped with a CoolSNAP-Pro color digital camera. The degree of nuclear condensation was evaluated, and the apoptotic cells were quantified.

HaCaT cells [11] = experiment: Lipid peroxidation, DPPP fluorescent probe; type: cell-based, human; details: UVB-irradiated cells treated with BDB
Description: as §4

[12] = Detection of hydroxyl radical, Fenton reaction, ESR spectrometry; type: physicochemical; details: BDB 30 μM; signal without BDB 3851
Description: The hydroxyl radical was generated by the Fenton reaction (H2O2+FeSO4) and then reacted with DMPO. The resultant DMPO/.OH adducts were detected using an ESR spectrometer. The ESR spectrum was recorded 2.5 min after a phosphate buffer solution (pH 7.4) was mixed with 0.2 mL each of 0.3 M DMPO, 10 mM FeSO4, 10 mM H2O2, and BDB (30 μM). The ESR spectrometer parameters were set at a magnetic field of 336 mT, power of 1.00 mW, frequency of 9.4380 GHz, modulation amplitude of 0.2 mT, gain of 200, scan time of 0.5 min, scan width of 10 mT, time constant of 0.03 sec, and temperature of 25° C.

HaCaT cells [13] = experiment: Comet assay, oxidative DNA damage; type: cell-based, human; details: UVB-exposed cells treated with BDB; UVB alone 37%
Description: The degree of oxidative DNA damage was determined in a comet assay. Cell suspension was mixed with 75 μL of 0.5% low melting agarose (LMA) at 39° C. and the mixture was spread on a fully frosted microscopic slide pre-coated with 200 μL of 1% normal melting agarose (NMA). After solidification of the agarose, the slide was covered with another 75 μl of 0.5% LMA and then immersed in a lysis solution (2.5 M NaCl, 100 mM Na-EDTA, 10 mM Tris, 1% Trion X-100 and 10% DMSO, pH 10) for 1 h at 4° C. The slides were then placed in a gel-electrophoresis apparatus containing 300 mM NaOH and 10 mM Na-EDTA (pH 13) for 40 min to allow for DNA unwinding and the expression of the alkali-labile damage. An electrical field was then applied (300 mA, 25 V) for 20 min at 4° C. to draw the negatively charged DNA towards the anode. The slides were washed three times for 5 min at 4° C. in a neutralizing buffer (0.4 M Tris, pH 7.5), stained with 75 μL of propidium iodide (20 μg/mL) and observed using a fluorescence microscope and an image analyzer (Kinetic Imaging, Komet 5.5, UK). The percentage of total fluorescence in the DNA tails and the tail length of 50 cells per slide were recorded.

HaCaT cells [14] = experiment: MTT assay, viability of HaCaT cells treated with BDB; type: cell-based, human; details: up to the concentration of 30 μM; tested at 10-50 μM
Description: as §1, §2

[15] = DPPH radical removal ability; type: physicochemical; details: 3 h
Description: BDB at a concentration of 10, 20, 30 μM and 2 mM NAC were added to a 1×10^−4 M solution of DPPH in methanol. The resulting reaction mixture was shaken vigorously. After 3 h, the amount of unreacted DPPH was measured at 520 nm using a spectrophotometer.

[16] = test system: infectious pancreatic necrosis virus; details: cited from earlier work
HaCaT cells [17] = experiment: Sub-G1 hypodiploid cells, flow cytometry; type: cell-based, human; details: BDB 30 μM, UVB 1 h later, 24 h; UVB alone 17%, no UVB 1%
Description: Flow cytometry was performed in order to determine the apoptotic sub-G1 hypodiploid cells. Cells were treated with BDB at a concentration of 30 μM and exposed to UVB radiation 1 h later. Cells were incubated for an additional 24 h at 37° C. Cells were harvested, and fixed in 1 mL of 70% ethanol for 30 min at 4° C. Cells were washed twice with PBS, and then incubated for 30 min in the dark at 37° C. in 1 mL of PBS containing 100 μg propidium iodide and 100 μg RNase A. Flow cytometric analysis was performed using a FACS Calibur flow cytometer (Becton Dickinson, Mountain View, Calif., USA). Sub-G1 hypodiploid cells were assessed based on the histograms generated using the computer programs, Cell Quest and Mod-Fit.

[18] = UV/visible scan 200 nm to 500 nm

- absorption peak 1 position [2, 18]: 288 nm
- absorption peak 2 position [2, 18]: 357 nm
- superoxide anion signal (ESR, DMPO/.OOH adducts) [5]: 2063
Structure (SMILES): O=Cc1cc(O)c(O)c(Br)c1 [BDB, 3-Bromo-4,5-dihydroxybenzaldehyde]
- viability at 10 µM (HaCaT cells [1]; BDB 10 μM): 73%
- viability at 20 µM (HaCaT cells [1]; BDB 20 μM): 73%
- viability at 30 µM (HaCaT cells [1]; BDB 30 μM): 77%
- UVB absorption ability ([2]; diluted in DMSO 1:500 (v/v), scanned at 200-500 nm): exhibited the absorption ability at 280 to 320 nm
- level of cytoplasmic histone-associated DNA fragmentation (HaCaT cells [3]): decreased
- intracellular ROS induced by H2O2 removed (HaCaT keratinocytes [4]; 10 μM): 64%
- intracellular ROS induced by H2O2 removed (HaCaT keratinocytes [4]; 20 μM): 67%
- intracellular ROS induced by H2O2 removed (HaCaT keratinocytes [4]; 30 μM): 70%
- 8-isoprostane level (lipid peroxidation) (HaCaT cells [6]): 1.9 pg/mg
- intracellular ROS induced by UVB removed (HaCaT keratinocytes [7]; 10 μM): 17%
- intracellular ROS induced by UVB removed (HaCaT keratinocytes [7]; 20 μM): 22%
- intracellular ROS induced by UVB removed (HaCaT keratinocytes [7]; 30 μM): 23%
- antiviral effect [8]: antiviral effect
- carbonyl formation induced by UVB (protein carbonyl level) (HaCaT cells [9]): inhibited
- Apoptotic Index (nuclear segments, Hoechst 33342) (HaCaT cells [10]): 9
- DPPP fluorescence (lipid peroxidation) (HaCaT cells [11]): exhibited the fluorescence in the more small range
- hydroxyl radical signal (ESR, DMPO/.OH adducts) [12]: 3002
- ratio of DNA in the tail (comet assay) (HaCaT cells [13]): 18%
- toxicity on human HaCaT keratinocyte (cell viability, MTT) (HaCaT cells [14]): does not exhibit toxicity
- DPPH radical scavenged ([15]; 10 μM, 1×10^−4 M DPPH in methanol): 6%
- DPPH radical scavenged ([15]; 20 μM, 1×10^−4 M DPPH in methanol): 21%
- DPPH radical scavenged ([15]; 30 μM, 1×10^−4 M DPPH in methanol): 25%
- antiviral effect [16]: antiviral effect
- apoptotic sub-G1 DNA (HaCaT cells [17]): 8%

Structure (SMILES): CC(=O)N[C@@H](CS)C(=O)O [NAC, N-acetyl cysteine, reference compound]
- intracellular ROS induced by H2O2 removed (HaCaT keratinocytes [4]; 2 mM): 80%
- intracellular ROS induced by UVB removed (HaCaT keratinocytes [7]; 2 mM): 22%
- DPPH radical scavenged ([15]; 2 mM, positive control): 89%
